Entries after “also recorded” stand apart in the source; their conditions may differ.
Experiments:
DGAT [1] = assay: Assay for inhibitory activity against DGAT ([14C]triacylglycerol formation, rat microsomal protein as enzyme source); type: biochemical; conditions: for DGAT (inhibition % in 25 μM) / DGAT (inhibition % in 5 μM): rat microsomal protein as enzyme source; for inhibitory activity against DGAT (in words): rat hepatic microsomal protein, 1,2-diacylglycerol and [14C]palmitoyl-CoA as substrates
Experimental: The following experiment was performed in order to examine the inhibitory activity of the indole derivatives of the present invention against DGAT. After enzymatic reaction between two substrates, 1,2-diacylglycerol (Sigma, D0138) and [^14C]palmitoyl-CoA (Amersham, CFA583), with the microsomal protein of rats serving as an enzyme source in accordance with Coleman et al, Methods Enzymol., 98-103, 1992, the resulting product [^14C] triacylglycerol was measured for radioactivity.
In detail, to a reaction buffer (175 mM Tris-HCl, pH 8.0, 20 μl bovine serum albumin (10 mg/ml), 100 mM MgCl2, 30 μM [^14C] palmitoyl-CoA (0.02 μCi, Amersham) and 200 μM 1,2-dioleoyl glycerol) was added 10 μl of a solution of the samples in dimethylsulfoxide (DMSO) and then 100-200 μl of an isolated microsomal protein, followed by reaction at 25° C. for 10 min. The reaction was terminated with 1.5 ml of a mixture of 80:20:2 2-propanol:heptane:water (v:v:v). Thereafter, the [^14C] triacylglycerol thus formed was separated. In this regard, 1 ml of heptane and 0.5 ml of distilled water were added to the reaction mixture, which was then shaken. 1 ml of the supernatant thus formed was mixed with 2 ml of an alkaline ethanol solution (ethanol:0.5 N sodium hydroxide:water=50:10:40, v:v:v), followed by shaking. After it was recovered, 0.65 ml of the supernatant thus formed was measured for radioactivity using an LSC (liquid scintillation counter). The inhibitory activity against DGAT was calculated according to the following Mathematical Formula 1.
T: Cpm of a test group in which a sample was added to an enzymatic buffer,
C: Cpm of a control in which no samples were added to an enzymatic buffer,
B: Cpm of a control in which a sample was added in the absence of any enzyme source.

DGAT [2] = assay: Assay for inhibitory effect on DGAT in cell (triglyceride production from [14C]acetate in HepG2 cells); type: cell-based, human; conditions: 10 μM; for Production Yield of Triglyceride (%): DMSO control taken as 100
Experimental: The effect of the indole derivatives of the present invention on DGAT was examined with HepG2 cells, hepatic cells derived from the human liver, as follows.
HepG2 cells, purchased from ATCC, were cultured in MEM (Minimum Essential Medium, 2 mM L-glutamine, Earle's BSS adjusted to contain 1.5 g/L sodium bicarbonate, 0.1 mM nonessential amino acids, and 1 mM sodium pyruvate), supplemented with 10% fetal bovine serum (FBS) and 1% antibiotics (100 U/ml penicillin and 100 µg/ml streptomycin) at 37° C. in a 5% CO2 incubator.
Intracellular DGAT activity was represented by the amount of triglycerides produced in the cultured HepG2 cells while the compounds (1, 6, 10, 11 and 15) of Chemical Formula 1 were assayed for inhibitory activity against DGAT by measuring the change in intracellular triglyceride production after the addition thereof.
Cells were plated at a density of 1×10^6 cell/ml per well into 24-well plates and incubated for 24 hours. Then, the medium was exchanged with FBS-free MEM. Thereafter, 0.2 mCi of [^14C]acetate (Amersham) was added as a substrate to the cells, followed by incubation for 18 hours. The production of triglycerides was catalyzed by DGAT so that DGAT activity was determined by the amount of the triglyceride product, which could be measured using radioactivity. For use, the samples were dissolved in dimethyl sulfoxide (DMSO). In a control, triglycerides were synthesized using DMSO without any sample, with the production yield thereof taken as 100.
The amount of the triglyceride products synthesized was determined as follows. […] 1 ml of the extract was concentrated with nitrogen gas. The total lipid residue thus formed was dissolved in an organic solvent mixture (chloroform:methanol=2:1) and loaded dropwise onto a thin layer chromatography plate (TLC; silica gel 60F254, 0.5 mm, Merck) using a mixture of 80:20:1 hexane:diethylether:acetic acid (v:v:v) as a developing solvent. After the separation of triglycerides (Rf value: 0.4) on TLC, the plate was brought into contact with an autoradiographic film for three hours, followed by image analysis (BAS-1500, Fuji Photo Film Co. Ltd.) to determine the [^14C] radioactivity of the triglycerides. The cells left after the extraction were suspended in 0.3 ml of a 0.1 N sodium hydroxide solution to measure the cellular protein concentration thereof.
The empirical values were obtained by dividing triglyceride radioactivity by protein level, with correction for experimental errors between test groups.

SPF ICR mice = assay: Single-dose oral acute toxicity, SPF ICR mice; type: in vivo, mouse
Experimental: In addition, the compounds of the present invention were orally administered once at a dose of as high as 2,000 mg/kg into mice. In this regard, 7-week-old male SPF ICR mice (Dae Han Biolink Co. Ltd.) were acclimated to a new environment for one week and then, at 8 weeks of age, were divided into two groups of three. The test group was orally administered once with a dose of 2 g/kg of Compound 10 in a 0.5% CMC solution, while the control was administered with a 0.5% CMC (carboxymethyl cellulose) solution alone. They were monitored for death, clinical signs, change in body weight and the like for a couple of weeks. Autopsies were performed to examine the abnormality of organs.

Structure (SMILES) | DGAT (inhibition % in 25 μM) (DGAT [1]) | biosynthesis of triglyceride in comparison with the control (in words) (DGAT [2]) | Production Yield of Triglyceride (%) (DGAT [2]) | DGAT (inhibition % in 5 μM) (DGAT [1]) | other results
NC(=O)c1cccc(NC(=O)/C=C/c2c[nH]c3ccccc23)c1 [Compound 2, 3-(3-1H-indol-3-yl-acryloylamino)-benzamide] | 19.36% |  |  |  | 
O=C(/C=C/c1cn(S(=O)(=O)c2cccs2)c2ccccc12)Nc1cccc(C(=O)NCc2ccco2)c1 [Compound 15, N-furan-2-ylmethyl-3-[3-[1-(thiophene-2-sulfonyl)-1H-indol-3-yl]-acryloylamino]-benzamide] | 49.88% | produced smaller amounts of triglycerides than did the control; also recorded: highly inhibit the biosynthesis of triglyceride | 61.5 ± 7.1% | 40.88% | inhibition of the biosynthesis of triglycerides (DGAT [2]): 38.5%; inhibitory activity against DGAT (in words) (DGAT [1]): potent inhibitory activity against DGAT in a dose-dependent manner
CC(=O)n1cc(/C=C/C(=O)Nc2cccc(C(=O)NCc3ccco3)c2)c2ccccc21 [Compound 16, 3-[3-(1-Acetyl-1H-indol-3-yl)-acryloylamino]-N-furan-2-ylmethyl-benzamide] | 39.82% |  |  | −10.09% | 
O=C(/C=C/c1cn(S(=O)(=O)Cc2ccccc2)c2ccccc12)Nc1cccc(C(=O)NCc2ccco2)c1 [Compound 14] | 50.89% |  |  | 43.19% | inhibitory activity against DGAT (in words) (DGAT [1]): potent inhibitory activity against DGAT in a dose-dependent manner
O=C(/C=C/c1c[nH]c2ccccc12)Nc1cccc(C(=O)O)c1 [Compound 6, 3-(3-1H-indol-3-yl-acryloylamino)-benzoic Acid] | 11.52% | produced smaller amounts of triglycerides than did the control | 92.5 ± 6.7% |  | 
O=C(/C=C/c1c[nH]c2ccccc12)Nc1cccc(C(=O)NCCN2CCCCC2)c1 [Compound 7, 3-(3-1H-indol-3-yl-acryloylamino)-N-(2-piperidin-1-yl-ethyl)-benzamide] | −3.11% |  |  | −5.29% | 
O=C(/C=C/c1c[nH]c2ccccc12)Nc1cccc(C(=O)NCc2ccco2)c1 [Compound 9, N-furan-2-ylmethyl-3-(3-1H-indol-3-yl-acryloylamino)-benzamide] | 13.24% |  |  | 2.72% | 
COC(=O)c1cccc(NC(=O)/C=C/c2c[nH]c3ccccc23)c1 [Compound 4, 3-(3-1H-indol-3-yl-acryloylamino)-benzoic Acid Methyl Ester] | 18.72% |  |  |  | 
O=C(CCc1c[nH]c2ccccc12)Nc1cccc(C(=O)O)c1 [Compound 5, 3-(3-1H-indol-3-yl-propionylamino)-benzoic Acid] | 0.08% |  |  |  | 
CN(C)CCn1cc(/C=C/C(=O)Nc2cccc(C(=O)NCc3ccco3)c2)c2ccccc21 [Compound 12, 3-{3[1-(2-Dimethylamino-ethyl)-1H-indol-3-yl]-acryloylamino}-N-furan-2-ylmethyl-benzamide] | −0.38% |  |  | −11.04% | 
NC(=O)c1cccc(NC(=O)CCc2c[nH]c3ccccc23)c1 [Compound 1, 3-(3-1H-indol-3-yl-propionylamino)-benzamide] | 4.66% | produced smaller amounts of triglycerides than did the control | 95.5 ± 5.7% |  | 
O=C(/C=C/c1c[nH]c2ccccc12)Nc1cccc(C(=O)NCCCN2CCOCC2)c1 [Compound 8, 3-(3-1H-indol-3-yl-acryloylamino)-N-(3-morpholin-4-yl-propyl)-benzamide] | 2.05% |  |  | 3.06% | 
CC(C)(C)OC(=O)n1cc(/C=C/C(=O)Nc2cccc(C(=O)NCc3ccco3)c2)c2ccccc21 [Compound 10, 3-(2-3-[(Furan-2-ylMethyl)-Carbamoyl]-Phenylcarbamoyl-Vinyl)-Indole-1-Carboxylic Acid-t-Butyl Ester] | 78.68% | produced smaller amounts of triglycerides than did the control; also recorded: highly inhibit the biosynthesis of triglyceride | 49.2 ± 5.7% | 60.22% | inhibition of the biosynthesis of triglycerides (DGAT [2]): 50.8%; oral acute toxicity (in words) (SPF ICR mice; administered once at a dose of up to 2,000 mg/kg): no oral acute toxicity; Mortality (No. of Dead/No of Tested) (SPF ICR mice; single oral dose 2 g/kg in 0.5% CMC, monitored two weeks): 0/3; Body Weight (g) Day 0 (SPF ICR mice; single oral dose 2 g/kg, Day 0, Mean ± SD): 36 ± 0.5 g; Body Weight (g) Day 1 (SPF ICR mice; single oral dose 2 g/kg, Day 1, Mean ± SD): 38 ± 1.0 g; Body Weight (g) Day 3 (SPF ICR mice; single oral dose 2 g/kg, Day 3, Mean ± SD): 38 ± 0.2 g; Body Weight (g) Day 7 (SPF ICR mice; single oral dose 2 g/kg, Day 7, Mean ± SD): 39 ± 1.2 g; Body Weight (g) Day 14 (SPF ICR mice; single oral dose 2 g/kg, Day 14, Mean ± SD): 42 ± 2.0 g; inhibitory activity against DGAT (in words) (DGAT [1]): potent inhibitory activity against DGAT in a dose-dependent manner
O=C(/C=C/c1cn(Cc2ccccc2)c2ccccc12)Nc1cccc(C(=O)NCc2ccco2)c1 [Compound 11, 3-[3-(1-Benzyl-1H-indol-3-yl)-acryloylamino]-N-furan-2-ylmethyl-benzamide] | 64.13% | produced smaller amounts of triglycerides than did the control; also recorded: highly inhibit the biosynthesis of triglyceride | 55.5 ± 7.2% | 54.09% | inhibition of the biosynthesis of triglycerides (DGAT [2]): 44.5%; inhibitory activity against DGAT (in words) (DGAT [1]): potent inhibitory activity against DGAT in a dose-dependent manner
CC(C)(C)OC(=O)Cn1cc(/C=C/C(=O)Nc2cccc(C(=O)NCc3ccco3)c2)c2ccccc21 [Compound 13, [3-(2-{3-[(Furan-2-ylmethyl)-carbamoyl]-phenylcarbamoyl}-vinyl)-indol-1-yl]-acetic acid-t-butyl Ester] | 53.15% |  |  | −0.95% | 
